PMC10893172, “Identification of Triazolopyrimidinyl Scaffold SARS-CoV-2 Papain-Like Protease (PL^pro) Inhibitor” (Pharmaceutics, 2024)
Like-named read-outs stand apart in the source and are kept apart here.

What was measured:
[1] = system: SARS-CoV and SARS-CoV-2 PL^pro protein; settings: known PL^pro inhibitors, literature values; cited from earlier work
[2] = biological target: SARS-CoV-2 papain-like protease (PL^pro) (Severe acute respiratory syndrome coronavirus 2, UniProt P0DTD1); test: biochemical
[3] = 0.2 µM PL^pro, 30 µM substrate, 30 min preincubation at 25 °C, endpoint fluorescence after 2 h, triplicate, read-out: IC50

Row | Molecule | IC50 [1] | IC50 [2, 3] | other results
1 | 5-Amino-2-methyl-N-[2-(1-naphthyl)ethyl]-benzamide [GRL0617] | 1.61 ± 0.09 µM | – | –
2 | C[C@H](c1cccc2ccccc12)N1CCC(C(=O)NCc2cccc(F)c2)CC1 [Hit 3K] | 0.15 ± 0.01 µM | – | –
3 | Cc1cc2nn(CC(=O)NCc3ccco3)c(=O)n2c(Nc2ccc(C)c(C)c2)n1 [Hit 372] | – | 82 ± 34 µM | –
4 | O=C(N/N=C/c1cccc(OC2CSC2)c1)c1ccccc1O [Hit 826] | – | – | IC50 [2]: 328 ± 33 µM
5 | Cn1nccc1-c1cc(C(=O)NCc2ccc(S(C)(=O)=O)cn2)c(=O)n(-c2cccc(C(F)(F)F)c2)c1 [Hit 903] | – | 881 ± 41 µM | –
6 | Cc1ccc(C)c(NC(=O)Cn2nc3n(C)c(=O)c4c(c(-c5ccccc5)cn4C)n3c2=O)c1 [Hit 922] | – | 439 ± 43 µM | –
7 | Nc1nc2[nH]cnc2c(=S)[nH]1 [Tioguanin (6-TG)] | 72 ± 12 µM | – | –
